Experiments:
Assay type in all cases: in vivo
[1] = system: wheat (Triticum aestivum); experiment: Test A postemergence; conditions: Triticum aestivum, post-emergence, 240 h, Postemergence, read-out: Plant response rating, Wheat; for plant injury at 125 g/ha: 125 g ai/ha, visual injury after approximately 10 d, 0 to 100 scale where 0 is no effect and 100 is complete control; for plant injury at 31 g/ha: 31 g ai/ha, visual injury after approx. 10 d, 0 to 100 scale, 0 no effect, 100 complete control
Summary of the method: (§1)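 Seeded soil received test chemicals as a preemergence directed spray, and seedlings at one to two leaves, 2–10 cm tall, received them postemergence, in a non-phytotoxic, surfactant-containing solvent mixture. Pots were held in a greenhouse for approximately 10 d, then rated for injury from 0, no effect, to 100, complete control.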

[2] = system: Galium (catchweed bedstraw, Galium aparine); experiment: Test A postemergence; conditions: Galium, post-emergence, 240 h, Postemergence, read-out: Plant response rating, Galium; for pest or weed control at 125 g/ha: 125 g ai/ha, visual injury after approximately 10 d, 0 to 100 scale where 0 is no effect and 100 is complete control; for pest or weed control at 31 g/ha: 31 g ai/ha, visual injury after approx. 10 d, 0 to 100 scale, 0 no effect, 100 complete control
Summary of the method: as §1

[3] = system: giant foxtail (Setaria faberii); experiment: Test A postemergence; conditions: Setaria faberi, post-emergence, 240 h, Postemergence, read-out: Plant response rating, Foxtail, Giant; for pest or weed control at 125 g/ha: 125 g ai/ha, visual injury after approximately 10 d, 0 to 100 scale where 0 is no effect and 100 is complete control; for pest or weed control at 31 g/ha: 31 g ai/ha, visual injury after approx. 10 d, 0 to 100 scale, 0 no effect, 100 complete control
Summary of the method: as §1

Kochia (Kochia scoparia) [4] = experiment: Test A postemergence; conditions: Bassia scoparia, post-emergence, 240 h, Postemergence, read-out: Plant response rating, Kochia; for pest or weed control at 125 g/ha: 125 g ai/ha, visual injury after approximately 10 d, 0 to 100 scale where 0 is no effect and 100 is complete control; for pest or weed control at 31 g/ha: 31 g ai/ha, visual injury after approx. 10 d, 0 to 100 scale, 0 no effect, 100 complete control
Summary of the method: as §1

[5] = system: ryegrass, Italian (Italian ryegrass, Lolium multiflorum); experiment: Test A postemergence; conditions: Lolium multiflorum, post-emergence, 240 h, Postemergence, read-out: Plant response rating, Ryegrass, Italian; for pest or weed control at 125 g/ha: 125 g ai/ha, visual injury after approximately 10 d, 0 to 100 scale where 0 is no effect and 100 is complete control; for pest or weed control at 31 g/ha: 31 g ai/ha, visual injury after approx. 10 d, 0 to 100 scale, 0 no effect, 100 complete control
Summary of the method: as §1

[6] = system: blackgrass (Alopecurus myosuroides); experiment: Test A postemergence; conditions: Alopecurus myosuroides, post-emergence, 240 h, Postemergence, read-out: Plant response rating, Blackgrass; for pest or weed control at 125 g/ha: 125 g ai/ha, visual injury after approximately 10 d, 0 to 100 scale where 0 is no effect and 100 is complete control; for pest or weed control at 31 g/ha: 31 g ai/ha, visual injury after approx. 10 d, 0 to 100 scale, 0 no effect, 100 complete control
Summary of the method: as §1

corn (Zea mays) = experiment: Test A postemergence; conditions: Zea mays, post-emergence, 240 h, Postemergence; for Corn plant response rating (crop injury, 0 = no effect, 100 = complete kill) at 125 g/ha: 125 g ai/ha, visual injury after approximately 10 d, 0 to 100 scale where 0 is no effect and 100 is complete control; for Corn plant response rating (crop injury, 0 = no effect, 100 = complete kill) at 31 g/ha: 31 g ai/ha, visual injury after approx. 10 d, 0 to 100 scale, 100 complete control
Summary of the method: as §1

[7] = system: ragweed (common ragweed, Ambrosia elatior); experiment: Test A postemergence; conditions: Ambrosia artemisiifolia, post-emergence, 240 h, Postemergence, read-out: Plant response rating, Ragweed; for pest or weed control at 125 g/ha: 125 g ai/ha, visual injury after approximately 10 d, 0 to 100 scale where 0 is no effect and 100 is complete control; for pest or weed control at 31 g/ha: 31 g ai/ha, visual injury after approx. 10 d, 0 to 100 scale, 0 no effect, 100 complete control
Summary of the method: as §1

[8] = system: pigweed (Amaranthus retroflexus); experiment: Test A postemergence; conditions: Amaranthus retroflexus, post-emergence, 240 h, Postemergence, read-out: Plant response rating, Pigweed; for pest or weed control at 125 g/ha: 125 g ai/ha, visual injury after approximately 10 d, 0 to 100 scale where 0 is no effect and 100 is complete control; for pest or weed control at 31 g/ha: 31 g ai/ha, visual injury after approx. 10 d, 0 to 100 scale, 0 no effect, 100 complete control
Summary of the method: as §1

[9] = system: barnyardgrass (Echinochloa crus-galli); experiment: Test A postemergence; conditions: Echinochloa crus-galli, post-emergence, 240 h, Postemergence, read-out: Plant response rating, Barnyardgrass; for pest or weed control at 125 g/ha: 125 g ai/ha, visual injury after approximately 10 d, 0 to 100 scale where 0 is no effect and 100 is complete control; for pest or weed control at 31 g/ha: 31 g ai/ha, visual injury after approx. 10 d, 0 to 100 scale, 0 no effect, 100 complete control
Summary of the method: as §1

[10] = system: giant foxtail (Setaria faberii); experiment: Test A preemergence; conditions: Setaria faberi, pre-emergence, 240 h, Preemergence; for pest or weed control at 125 g/ha: 125 g ai/ha, visual injury rating after approximately 10 d, read-out: Foxtail, Giant plant response rating (0 to 100 scale, 0 is no effect, 100 is complete control); for pest or weed control at 31 g/ha: 31 g ai/ha, 0 to 100 scale (0 no effect, 100 complete control), read-out: Plant response rating, Foxtail, Giant
Summary of the method: as §1

Kochia (Kochia scoparia) [11] = experiment: Test A preemergence; conditions: Bassia scoparia, pre-emergence, 240 h, Preemergence; for pest or weed control at 31 g/ha: 31 g ai/ha, 0 to 100 scale where 0 is no effect and 100 is complete control, read-out: Kochia plant response rating; for pest or weed control at 125 g/ha: 125 g ai/ha, visual injury rating after approximately 10 d, read-out: Kochia plant response rating (0 to 100 scale, 0 is no effect, 100 is complete control)
Summary of the method: as §1

[12] = system: ryegrass, Italian (Italian ryegrass, Lolium multiflorum); experiment: Test A preemergence; conditions: Lolium multiflorum, pre-emergence, 240 h, Preemergence; for pest or weed control at 31 g/ha: 31 g ai/ha, 0 to 100 scale where 0 is no effect and 100 is complete control, read-out: Ryegrass, Italian plant response rating; for pest or weed control at 125 g/ha: 125 g ai/ha, visual injury rating after approximately 10 d, read-out: Ryegrass, Italian plant response rating (0 to 100 scale, 0 is no effect, 100 is complete control)
Summary of the method: as §1

[13] = system: ragweed (common ragweed, Ambrosia elatior); experiment: Test A preemergence; conditions: Ambrosia artemisiifolia, pre-emergence, 240 h, Preemergence; for pest or weed control at 31 g/ha: 31 g ai/ha, 0 to 100 scale where 0 is no effect and 100 is complete control, read-out: Ragweed plant response rating; for pest or weed control at 125 g/ha: 125 g ai/ha, visual injury rating after approximately 10 d, read-out: Ragweed plant response rating (0 to 100 scale, 0 is no effect, 100 is complete control)
Summary of the method: as §1

[14] = system: pigweed (Amaranthus retroflexus); experiment: Test A preemergence; conditions: Amaranthus retroflexus, pre-emergence, 240 h, Preemergence; for pest or weed control at 31 g/ha: 31 g ai/ha, 0 to 100 scale where 0 is no effect and 100 is complete control, read-out: Pigweed plant response rating; for pest or weed control at 125 g/ha: 125 g ai/ha, visual injury rating after approximately 10 d, read-out: Pigweed plant response rating (0 to 100 scale, 0 is no effect, 100 is complete control)
[15] = system: barnyardgrass (Echinochloa crus-galli); experiment: Test A preemergence; conditions: Echinochloa crus-galli, pre-emergence, 240 h, Preemergence; for pest or weed control at 125 g/ha: 125 g ai/ha, visual injury rating after approximately 10 d, read-out: Barnyardgrass plant response rating (0 to 100 scale, 0 is no effect, 100 is complete control); for pest or weed control at 31 g/ha: 31 g ai/ha, 0 to 100 scale (0 no effect, 100 complete control), read-out: Plant response rating, Barnyardgrass
Summary of the method: as §1

rice (Oryra sativa) = experiment: Test B flooded paddy test; conditions: Oryza sativa, 250 g ai/ha, Flood; 0 to 100 scale where 0 is no effect and 100 is complete control; read-out: Rice plant response rating
Summary of the method: (§2)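 Evaluation by eye, against controls, occurred 13–15 d post-treatment in a greenhouse, using a 0 (no effect) to 100 (complete control) scale. Application was into the paddy water, 3 cm deep over the soil, on 2-leaf plants.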

[16] = system: ducksalad (Heteranthera limosa); experiment: Test B flooded paddy test; conditions: Heteranthera limosa, 250 g ai/ha, Flood; 0 to 100 scale where 0 is no effect and 100 is complete control; read-out: Ducksalad plant response rating
Summary of the method: as §2

[17] = system: sedge, umbrella (small-flower umbrella sedge, Cyperus difformis); experiment: Test B flooded paddy test; conditions: Cyperus difformis, 250 g ai/ha, Flood; 0 to 100 scale where 0 is no effect and 100 is complete control; read-out: Sedge, Umbrella plant response rating
Summary of the method: as §2

[18] = system: barnyardgrass (Echinochloa crus-galli); experiment: Test B flooded paddy test; conditions: Echinochloa crus-galli, 250 g ai/ha, Flood; 0 to 100 scale where 0 is no effect and 100 is complete control; read-out: Barnyardgrass plant response rating
Summary of the method: as §2

| SMILES | plant injury at 125 g/ha [1] [%] | plant injury at 31 g/ha [1] [%] | pest or weed control at 125 g/ha [2] [%] | pest or weed control at 31 g/ha [2] [%] | pest or weed control at 125 g/ha [3] [%] | pest or weed control at 31 g/ha [3] [%] | pest or weed control at 125 g/ha (Kochia (Kochia scoparia) [4]) [%] | pest or weed control at 31 g/ha (Kochia (Kochia scoparia) [4]) [%] | pest or weed control at 125 g/ha [5] [%] | pest or weed control at 31 g/ha [5] [%] | pest or weed control at 125 g/ha [6] [%] | pest or weed control at 31 g/ha [6] [%] | Corn plant response rating (crop injury, 0 = no effect, 100 = complete kill) at 125 g/ha (corn (Zea mays)) [%] | Corn plant response rating (crop injury, 0 = no effect, 100 = complete kill) at 31 g/ha (corn (Zea mays)) [%] | pest or weed control at 125 g/ha [7] [%] | pest or weed control at 31 g/ha [7] [%] | pest or weed control at 125 g/ha [8] [%] | pest or weed control at 31 g/ha [8] [%] | pest or weed control at 125 g/ha [9] [%] | pest or weed control at 31 g/ha [9] [%] | other results |
| --- | --- | --- | --- | --- | --- | --- | --- | --- | --- | --- | --- | --- | --- | --- | --- | --- | --- | --- | --- | --- | --- |
| O=C(Nc1cccc(F)c1F)[C@H]1C(=O)N(C2CC2)CC[C@@H]1c1ccc(F)cc1 [Compound 1003] | 0 | 0 | 0 | 0 | 0 | 0 | 0 | 0 | 0 | 0 | 0 | 0 | 0 | 0 | 0 | 0 | 0 | 0 | 0 | 0 | pest or weed control at 125 g/ha [10]: 60%; pest or weed control at 31 g/ha [10]: 0%; pest or weed control at 31 g/ha (Kochia (Kochia scoparia) [11]): 0%; pest or weed control at 125 g/ha (Kochia (Kochia scoparia) [11]): 0%; pest or weed control at 31 g/ha [12]: 0%; pest or weed control at 125 g/ha [12]: 0%; pest or weed control at 31 g/ha [13]: 0%; pest or weed control at 125 g/ha [13]: 0%; pest or weed control at 31 g/ha [14]: 0%; pest or weed control at 125 g/ha [14]: 0%; pest or weed control at 125 g/ha [15]: 0%; pest or weed control at 31 g/ha [15]: 0%; pest or weed control at 250 g/ha (rice (Oryra sativa)): 0%; pest or weed control at 250 g/ha [16]: 0%; pest or weed control at 250 g/ha [17]: 0%; pest or weed control at 250 g/ha [18]: 0% |
| CSc1ccccc1NC(=O)[C@H]1C(=O)N(C2CC2)CC[C@@H]1c1ccc(F)cc1 [Compound 1005] | 0 | 0 | 0 | 0 | 0 | 0 | 0 | 0 | 0 | 0 | 0 | 0 | 0 | 0 | 0 | 0 | 0 | 0 | 0 | 0 | pest or weed control at 125 g/ha [10]: 0%; pest or weed control at 31 g/ha [10]: 0%; pest or weed control at 31 g/ha (Kochia (Kochia scoparia) [11]): 0%; pest or weed control at 125 g/ha (Kochia (Kochia scoparia) [11]): 0%; pest or weed control at 31 g/ha [12]: 0%; pest or weed control at 125 g/ha [12]: 0%; pest or weed control at 31 g/ha [13]: 0%; pest or weed control at 125 g/ha [13]: 0%; pest or weed control at 31 g/ha [14]: 0%; pest or weed control at 125 g/ha [14]: 0%; pest or weed control at 125 g/ha [15]: 0%; pest or weed control at 31 g/ha [15]: 0%; pest or weed control at 250 g/ha (rice (Oryra sativa)): 0%; pest or weed control at 250 g/ha [16]: 0%; pest or weed control at 250 g/ha [17]: 0%; pest or weed control at 250 g/ha [18]: 0% |

From patent US12077503B2, “Substituted cyclic amides and their use as herbicides” (FMC CORPORATION, priority 2015, dated 2024)
